Two substances from patent publication US20120214874A1, “PHARMACEUTICAL FORMULATIONS AND METHODS OF USE” (Nuvo Research Inc., priority 2009, published 2012) can be followed below.

The series can be described thus: pH measurement of formulations and panthenol solutions (Experiments A-C, E). The class given is physicochemical. On the procedure:
Experiment A: AMP (0.0006%) was added to NRI-ANA-14 to replicate the AMP concentration in NRI-ANA-08. After AMP addition, the pH of NRI-ANA-08 was 4.1, and the pH of NRI-ANA-14 (+0.0006% AMP) was 4.2. This supported the hypothesis.
Experiment B: AMP (0.012%) was added to NRI-ANA-14 to replicate the AMP concentration in NRI-ANA-13. After AMP addition, the pH of NRI-ANA-13 was 4.8, and the pH of NRI-ANA-14 (+0.012% AMP) was 4.8. This supported the hypothesis.
Experiment C: A modified NRI-ANA-14 formulation containing 1.3% TEC and citric acid equivalent to 0.7% TEC was prepared. A control NRI-ANA-14 formulation was subjected to a stability study according to the method set forth in Example 19. After six months at 40° C., the pH of the control NRI-ANA-14 formulation was 2.6, while the pH of the modified NRI-ANA-14 formulation was 1.6. This supported the hypothesis.
Experiment E: The pH of 10% aqueous solution of D,L- and D-panthenol were measured. The pH of 10% D,L-panthenol was 6.7, but the pH of 10% D-panthenol was 9.4. This supported the hypothesis.

For “2,4-dihydroxy-N-(3-hydroxypropyl)-3,3-dimethyl-butanamide [D,L-panthenol]”, the “pH of 10% aqueous solution” value came to 6.7.

As for “(2R)-2,4- dihydroxy-N- (3- hydroxy- propyl)-2,3,3- trimethyl- butanamide [D-panthenol]”, the “pH of 10% aqueous solution” value was 9.4.
